Patent publication US10392401B2, “Crystal form A of compound and preparation method thereof” (SHANGHAI INSTITUTE OF MATERIA MEDICA, CHINESE ACADEMY OF …, priority 2015, dated 2019)
Where two headings read alike, the source gives them in different places.

What was measured:
[1] = Oral hypoglycemic activity compared with amorphous powder; assay type: in vivo; settings: orally administered; versus amorphous powder
[2] = Stability of the crystal form; assay type: physicochemical
[3] = Solubility compared with amorphous powder; assay type: physicochemical; settings: versus amorphous powder
[4] = Oral absorption and bioavailability compared with amorphous powder; assay type: in vivo; settings: versus amorphous powder
[5] = Hygroscopicity analysis (DVS); assay type: physicochemical
Procedure: Dynamic vapor absorption (DVS) test/water absorption test is conducted by rapidly measuring the increase and loss of the moisture in the sample caused by flow carrier gas with setted relative humidity (RH). The sample is placed on a digital microbalance with high sensitivity and high stability at a self-suspension state, and then by measuring the increase/decrease of the material mass so as to measure the adsorption/desorption of water vapor, thereby determining the hygroscopicity of the sample.
In the present invention, the test parameters for DVS are as follows: Instrument type: SMS DVS Intrinsic; Non-hydrate: 0 to 95%-0% RH; Temperature: 25° C.; Hydrate: 40 to 95%-0% RH; Temperature: 25° C.

[6] = Pharmacokinetic study in rats; assay type: in vivo; settings: versus alogliptin
DPP IV [7] = target: DPP IV (Homo sapiens, UniProt P27487); test: DPP IV inhibitory activity and selectivity in vitro; assay type: biochemical
[8] = system: gene-deficient db/db mice; test: Chronic administration to gene-deficient db/db mice, fasting blood glucose; assay type: in vivo
DPP IV [9] = target: T1, DPP IV (Mus musculus, UniProt P28843); test: Inhibition of DPP IV activity in normal mice plasma; assay type: in vivo
T1 construct: from tissue; host or cells: mouse plasma

normal ICR mice = test: Oral glucose tolerance in normal ICR mice; assay type: in vivo
ICR mice = test: Acute toxicity test in ICR mice; assay type: in vivo; settings: 300 mg/kg group
[10] = Pharmacokinetic study in dogs; assay type: in vivo; settings: versus alogliptin
DPP IV [11] = target: T2, DPP IV (Rattus norvegicus, UniProt P14740); test: Inhibition of DPP IV activity in rat plasma; assay type: in vivo
T2 construct: from tissue; host or cells: rat plasma

ob/ob mice = test: Chronic administration to ob/ob mice, fasting blood glucose; assay type: in vivo
Rat = test: Subacute toxicity test in Rat; assay type: in vivo; settings: oral, 150 mg/kg group
[12] = versus positive control alogliptin

DPP IV (Homo sapiens, UniProt P27487), sequence (P27487 whole entry, species assumed): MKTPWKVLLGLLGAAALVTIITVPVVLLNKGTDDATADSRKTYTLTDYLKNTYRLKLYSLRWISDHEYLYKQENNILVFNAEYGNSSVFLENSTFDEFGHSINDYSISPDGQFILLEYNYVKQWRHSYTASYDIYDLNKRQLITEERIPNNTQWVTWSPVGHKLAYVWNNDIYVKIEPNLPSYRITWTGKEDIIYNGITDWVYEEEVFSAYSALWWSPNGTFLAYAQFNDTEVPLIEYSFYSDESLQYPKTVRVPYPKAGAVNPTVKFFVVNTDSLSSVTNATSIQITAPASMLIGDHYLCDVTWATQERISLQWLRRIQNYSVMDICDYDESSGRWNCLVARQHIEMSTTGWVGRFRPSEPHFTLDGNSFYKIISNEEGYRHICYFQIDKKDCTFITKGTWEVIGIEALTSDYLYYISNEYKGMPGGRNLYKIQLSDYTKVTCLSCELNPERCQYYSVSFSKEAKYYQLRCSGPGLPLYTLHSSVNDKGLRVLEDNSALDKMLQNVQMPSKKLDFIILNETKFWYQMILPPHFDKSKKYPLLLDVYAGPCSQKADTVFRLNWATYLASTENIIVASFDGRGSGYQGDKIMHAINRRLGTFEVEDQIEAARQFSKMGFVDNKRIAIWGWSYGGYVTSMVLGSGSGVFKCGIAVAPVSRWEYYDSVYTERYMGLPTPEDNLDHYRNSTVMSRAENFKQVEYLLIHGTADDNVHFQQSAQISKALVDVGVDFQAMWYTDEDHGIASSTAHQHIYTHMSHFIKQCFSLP
T2 sequence (P14740 37-767 limits assumed): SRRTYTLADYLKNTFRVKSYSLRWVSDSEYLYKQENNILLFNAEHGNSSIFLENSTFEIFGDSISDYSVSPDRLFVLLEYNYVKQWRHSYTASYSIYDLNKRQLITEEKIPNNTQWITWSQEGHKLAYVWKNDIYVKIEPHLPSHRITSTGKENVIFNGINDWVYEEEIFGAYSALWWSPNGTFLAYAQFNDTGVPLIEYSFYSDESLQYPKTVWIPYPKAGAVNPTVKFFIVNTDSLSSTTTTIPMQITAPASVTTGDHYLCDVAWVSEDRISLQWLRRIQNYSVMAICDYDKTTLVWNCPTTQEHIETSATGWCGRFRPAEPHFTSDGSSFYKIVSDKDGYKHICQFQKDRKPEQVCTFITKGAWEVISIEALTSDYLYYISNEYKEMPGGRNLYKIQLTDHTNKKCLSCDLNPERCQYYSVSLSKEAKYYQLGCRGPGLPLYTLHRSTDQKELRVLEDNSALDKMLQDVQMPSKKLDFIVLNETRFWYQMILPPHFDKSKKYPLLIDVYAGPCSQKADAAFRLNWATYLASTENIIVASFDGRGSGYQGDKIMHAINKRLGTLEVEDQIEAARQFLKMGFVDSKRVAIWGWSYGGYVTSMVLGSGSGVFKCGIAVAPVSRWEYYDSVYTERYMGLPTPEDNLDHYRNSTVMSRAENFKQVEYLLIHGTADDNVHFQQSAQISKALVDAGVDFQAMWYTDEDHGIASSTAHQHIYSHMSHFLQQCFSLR
T1 sequence (P28843 37-760 limits assumed): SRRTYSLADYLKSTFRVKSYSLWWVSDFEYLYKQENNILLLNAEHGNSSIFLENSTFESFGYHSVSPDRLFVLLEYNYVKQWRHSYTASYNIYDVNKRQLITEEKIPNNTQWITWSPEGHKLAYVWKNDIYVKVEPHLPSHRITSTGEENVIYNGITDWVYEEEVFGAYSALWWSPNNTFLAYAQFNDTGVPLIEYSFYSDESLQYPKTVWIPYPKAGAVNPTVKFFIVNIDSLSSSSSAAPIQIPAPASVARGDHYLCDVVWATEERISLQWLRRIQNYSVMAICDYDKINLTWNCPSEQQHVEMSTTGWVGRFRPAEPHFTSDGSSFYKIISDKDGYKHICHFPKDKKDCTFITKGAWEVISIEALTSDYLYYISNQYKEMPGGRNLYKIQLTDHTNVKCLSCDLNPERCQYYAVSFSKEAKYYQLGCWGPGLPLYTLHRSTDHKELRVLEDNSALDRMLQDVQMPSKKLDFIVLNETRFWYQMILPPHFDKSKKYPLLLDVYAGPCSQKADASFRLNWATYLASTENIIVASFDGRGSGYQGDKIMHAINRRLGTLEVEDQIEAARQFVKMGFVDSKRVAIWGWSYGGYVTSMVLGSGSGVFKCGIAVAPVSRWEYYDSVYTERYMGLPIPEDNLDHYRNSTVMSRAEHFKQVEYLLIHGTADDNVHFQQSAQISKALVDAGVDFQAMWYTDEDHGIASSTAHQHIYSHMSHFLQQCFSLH

Structure (SMILES): COC(=O)c1cc2nc(N3CCC[C@@H](N)C3)n(Cc3ccccc3C#N)c(=O)c2s1 [crystal form A, (R)-methyl-2-(3-aminopiperidin-1-yl)-3-(2-cyanobenzyl)-4-carbonyl-3,4-dihydrothiop hene[3,2-d] pyrimidine-6-carboxylic acid]
- hypoglycemic activity compared with amorphous powder [1]: better
- stability, in particular thermal stability ([2]; compared with the prior art): better stability
- degradability ([2]; conventional conditions): not easily degradable
- solubility compared with amorphous powder [3]: improve solubility
- oral absorption ability compared with amorphous powder [4]: enhance oral absorption ability
- hygroscopicity [5]: less than 1%
- moisture content ([5]; 40% RH): 0.26%
- moisture absorbed ([5]; 65% RH): 0.42%
- moisture absorbed ([5]; 80% RH): 0.57%
- hygroscopicity (DVS) ([5]; FIG. 5, crystal of Example 1): slight hygroscopicity
- variation range of humidity ([5]; range of conventional storage humidity): smaller than 2.0%
- hygroscopicity ([5]; relative humidity RH less than 50%): less than 0.3%

Structure (SMILES): COC(=O)c1cc2nc(N3CCC[C@@H](N)C3)n(Cc3ccccc3C#N)c(=O)c2s1 [Formula I, (R)-methyl-2-(3-aminopiperidin-1-yl)-3-(2-cyanobenzyl)-4-carbonyl-3,4-dihydroth iophene[3,2-d] pyrimidine-6-carboxylic acid]
- AUC0-t compared with alogliptin [6]: superior
- half-life compared with alogliptin [6]: superior
- type of DPP IV inhibition (DPP IV [7]): selective and reversible competitive
- inhibitory activity (DPP IV [7]; in vitro): nanomolar level
- inhibitory activity and selectivity in vitro compared with sitagliptin and vildagliptin (DPP IV [7]; in vitro, versus listed drugs sitagliptin and vildagliptin): superior
- fasting blood glucose [8]: can reduce
- fasting blood glucose reduction compared with alogliptin [8, 12]: comparable
- DPP IV activity in plasma (DPP IV [9]): effectively inhibit
- DPP IV inhibitory activity compared with alogliptin (DPP IV [9]; versus alogliptin): superior
- effective dose for increasing oral glucose tolerance (normal ICR mice; dose-dependent): 0.1 mg/kg
- effect on oral glucose tolerance compared with alogliptin (normal ICR mice; versus alogliptin): superior
- death in acute toxicity test (ICR mice): no death
- AUC0-t compared with alogliptin [10]: superior
- half-life compared with alogliptin [10]: superior
- DPP IV activity in plasma (DPP IV [11]): effectively inhibit
- DPP IV inhibitory activity compared with alogliptin (DPP IV [11]; versus alogliptin): superior
- fasting blood glucose (ob/ob mice): effectively reduce
- fasting blood glucose reduction compared with alogliptin (ob/ob mice; [12]): superior
- toxicity in subacute toxicity test (Rat): no obvious toxicity
